Source: article PMC9181126, “Design, Synthesis, Molecular Docking Analysis and Biological Evaluations of 4-[(Quinolin-4-yl)amino]benzamide Derivatives as Novel Anti-Influenza Virus Agents” (International Journal of Molecular Sciences, 2022)

Tests used:
A/WSN/33, H1N1 = tested on: A/WSN/33, H1N1; set-up: method as in PMID 25333287; conditions: cited from earlier work
A/PR/8 (H1N1) = assay: Plaque inhibition assay in MDCK cells; format: cell-based; conditions: Influenza A virus
influenza B virus = assay: Plaque inhibition assay in MDCK cells; format: cell-based
A/HK/68 (H3N2) = assay: Plaque inhibition assay in MDCK cells; format: cell-based; conditions: Influenza A virus
[1] = tested on: influenza virus A/WSN/33 (H1N1); assay: Plaque inhibition assay in MDCK cells; format: cell-based; conditions: for IC50: MDCK cells; for inhibition at 100 µM: MDCK, concentration 100 µM, read-out: Plaque Inhibition Assay (A/WSN/33, H1N1) Inhibition Rate
[2] = tested on: influenza virus A/WSN/33 (H1N1); assay: microbe, parasite or virus in culture; format: cell-based; conditions: MDCK, 72 h; for inhibition at 12.5 µM / inhibition at 25 µM / inhibition at 50 µM / inhibition at 100 µM: H1N1|WSN, read-out: Antiviral activity in CPE assay; for EC50: read-out: Cytopathic Effect Assay (A/WSN/33, H1N1) EC50
[3] = target: ribonucleoprotein (RNP) of influenza virus (Influenza A virus, UniProt P15659); assay: cell-based; conditions: HEK-293T; concentration 100 µM; read-out: RNP Reconstitution Assay Inhibition Rate
in vitro [4] = format: cell-based; conditions: human
How it was run: (§1)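 Cells were seeded and compound medium added after 48 h, then incubated 72 h at 37 °C, 5% CO2. Viability was measured by MTT (4 h), then solubilization and absorbance at 620 nm after a further 3 h. DMSO-only wells were taken as 100% viable.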

HEK293T cells = assay: in vitro; format: cell-based; conditions: human, 72 h
How it was run: as §1

MDCK cells = assay: in vitro; format: cell-based, canine; conditions: dog, 72 h
How it was run: as §1

in vitro [5] = format: cell-based, canine; conditions: dog
How it was run: as §1

SMILES	inhibition at 12.5 µM [2] [%]	inhibition at 25 µM [2] [%]	inhibition at 50 µM [2] [%]	inhibition at 100 µM [2] [%]	EC50 [2] [µM]	inhibition at 100 µM [3] [%]	CC50 at 72 h (in vitro [4]) [µM]	HEK293T cells survival rate (HEK293T cells; 3.125 µmol·L−1) [%]	HEK293T cells survival rate (HEK293T cells; 6.25 µmol·L−1) [%]	HEK293T cells survival rate (HEK293T cells; 12.5 µmol·L−1) [%]	HEK293T cells survival rate (HEK293T cells; 25 µmol·L−1) [%]	HEK293T cells survival rate (HEK293T cells; 50 µmol·L−1) [%]	HEK293T cells survival rate (HEK293T cells; 100 µmol·L−1) [%]	MDCK cells survival rate (MDCK cells; 12.5 µmol·L−1) [%]	MDCK cells survival rate (MDCK cells; 25 µmol·L−1) [%]	MDCK cells survival rate (MDCK cells; 50 µmol·L−1) [%]	MDCK cells survival rate (MDCK cells; 100 µmol·L−1) [%]	CC50 at 72 h (in vitro [5]) [µM]	inhibition at 100 µM [1] [%]	melting point [°C]	further results
CCN(CC)Cc1cc(Nc2ccnc3cc(Cl)ccc23)ccc1O [amodiaquine]	–	–	–	–	–	–	–	–	–	–	–	–	–	–	–	–	–	–	–	–	EC50 (A/WSN/33, H1N1): 6.3 µM
NC12CC3CC(CC(C3)C1)C2 [amantadine, reference compound]	–	–	–	–	–	–	–	–	–	–	–	–	–	–	–	–	–	–	–	–	IC50 (A/PR/8 (H1N1)): 64.2 ± 7.21 µM; IC50 (influenza B virus): > 100 µM; IC50 (A/HK/68 (H3N2)): 2.22 ± 0.57 µM; IC50 [1]: > 100 µM
COc1ccccc1OCCNC(=O)c1ccc(Nc2ccnc3cc(C(F)(F)F)ccc23)cc1 [Compound G07, N-[2-(2-Methoxyphenoxy)ethyl]-4-{[7-(trifluoromethyl)quinolin-4-yl]amino}benzamide]	61.4 ± 6.86	78.2 ± 8.28	107 ± 2.43	112 ± 4.3	11.4 ± 1.89	80.7	> 100	106.60±2.14	97.91±1.23	91.58±3.34	87.01±2.19	90.17±2.90	81.39±7.21	140.55±9.82	115.87±11.06	256.24±17.89	115.75±5.12	> 100	95.9	–	IC50 (A/PR/8 (H1N1)): 11.4 ± 2.38 µM; IC50 (influenza B virus): 11 ± 1.16 µM; IC50 (A/HK/68 (H3N2)): 7.51 ± 1.76 µM; IC50 [1]: 0.23 ± 0.15 µM
COc1ccccc1OCCNC(=O)c1ccc(Nc2ccnc3cc(OC(F)(F)F)ccc23)cc1 [Compound G22, N-[2-(2-Methoxyphenoxy)ethyl]-4-{[7-(trifluoromethoxy)quinolin-4-yl]amino}benzamide]	112 ± 6.15	108 ± 8.75	106 ± 5.94	97.4 ± 10.2	< 10	43.9	> 100	117.25±6.52	103.91±6.77	91.65±2.90	89.97±4.08	88.83±5.80	86.07±5.65	95.78±2.47	99.56±3.73	104.22±9.18	118.12±6.49	> 100	20	229.5 to 230.7	–
COc1ccccc1OCCNC(=O)c1ccc(Nc2ccnc3ccc(C(F)(F)F)cc23)cc1 [Compound G26, N-[2-(2-Methoxyphenoxy)ethyl]-4-{[6-(trifluoromethyl)quinolin-4-yl]amino}benzamide]	15.7 ± 1.06	16.8 ± 2.11	36.8 ± 1.79	49.7 ± 6.09	> 100	22.6	> 100	104.54±2.55	83.92±2.40	78.70±2.98	74.64±5.24	72.10±1.56	70.01±9.07	103.03±1.26	105.52±6.56	122.08±7.85	133.91±11.97	> 100	< 10	225.3 to 227.3	–
CC(C)NC(=O)c1ccc(Nc2ccnc3cc(C(F)(F)F)ccc23)cc1 [Compound G02, N-Isopropyl-4-{[7-(trifluoromethyl)quinolin-4-yl]amino}benzamide]	53.6 ± 3.38	61.6 ± 2.13	76.7 ± 2.26	80.6 ± 9.03	10.1 ± 1.66	3.1	> 100	95.91±3.00	87.90±2.52	85.31±11.55	74.04±2.91	75.54±11.17	66.13±2.32	153.38±36.06	137.54±0.71	140.08±12.49	203.79±6.42	> 100	< 10	243.7 to 245.9	–
